What was measured:
Format in all cases: cell-based, human
[1] = system: MLL leukemia and non-MLL leukemia cells; assay: Leukemia cell proliferation by cell counting; conditions: panel of MLL and non-MLL leukemia cell lines, increasing concentrations, 3 days
Procedure: (§1) FIG. 6. CKII inhibition increases genome-wide MLL occupancy and excludes SEC recruitment in MLL leukemia cells. (A) and (B) MLL1C occupancy in CX-4945 or TTP22 treated cells were shown relative to DMSO control. […] (C) Track examples of the MLL1 occupancy at the promoter regions of ELF2 and C6orf211. (D) CX-4945 inhibition of leukemia cell proliferation. Multiple MLL leukemia (orange lines) and non-MLL leukemia (blue lines) were cultured with different doses of CX-4945 for 3 days. Cell number was determined by cell counter and normalized to DMSO control. (E) SEM cells were treated with 0, 5 or 10 μM of CX-4945 for 30 hours and western blot was performed to determine the MLL1 full-length protein levels and MLL-AF4 fusion protein levels. (F) MLL-AFF1, AFF4 and ELL2 occupancies were decreased by CX-4945 treatment in SEM cells.
Cell culture. All of the cell lines were purchased from the American Type Culture Collection (Rockville, Md.). 293T, MCF7 and HCT116 cell lines were maintained in Dulbecco's modified Eagle's medium (DMEM) (Gibco, Gaithersburg, Md.) supplemented with 10% fetal bovine serum (FBS) (Gibco) at 37° with 5% CO2. SEM was maintained in IMDM with 10% FBS. […]
Cell Proliferation Assay. Cell proliferation was measured by cell counting using the Vi-CELL™ Cell Counter (Beckman Coulter Life Sciences, Indianapolis, Ind.). […]

MLL1, MLL-AF4 = assay: Western blot of MLL1 full-length and MLL-AF4 fusion protein levels in SEM cells; conditions: SEM cells, 0, 5 or 10 μM, 30 hours
Procedure: as §1
Cell culture. All of the cell lines were purchased from the American Type Culture Collection (Rockville, Md.). 293T, MCF7 and HCT116 cell lines were maintained in Dulbecco's modified Eagle's medium (DMEM) (Gibco, Gaithersburg, Md.) supplemented with 10% fetal bovine serum (FBS) (Gibco) at 37° with 5% CO2. SEM was maintained in IMDM with 10% FBS. MM6 was maintained in RPMI1640 supplemented with 10% FBS and non-essential amino acids. MOLM13, RS4:11, MV4-11, RL, REH, U937m SU-DHL-6 and OCI-LY1 were maintained in RPMI1640 supplemented with 10% FBS. […]

MLL2, TFIIA = assay: Western blot of MLL2 and TFIIA cleavage in 293T cells treated with CX-4945; conditions: 10 μM, 30 hours
Procedure: FIG. 5. CKII inhibitors selectively increase full-length MLL1 protein levels by decreasing the phosphorylation of MLL1 near the cleavage sites. (A) Conservation of the sequences flanking MLL1-CS2, MLL2 and TFIIA cleavage sites and phosphorylated serine and threonine residues after the cleavage sites (highlighted in red). (B) and (C) 293T cells were transfected with vector control (VT), WT, AA or DD reporter constructs of MLL1-p75 or TFIIA. Western blot was performed with anti-Flag antibody for MLL1 (p75: FL, p47: cleaved) or TFIIA (p54: FL, p47: cleaved). (D) and (E) 293T cells were transfected with WT or AA reporter constructs of MLL1-p75 or TFIIA in the presence or absence of HA-taspase1. Western blot was performed with anti-Flag antibody for MLL1 or TFIIA, or anti-HA antibody for taspase1. (F) 293T cells were infected with shRNAs against CKIIα or CKIIα′. Western blot was performed with anti-MLL1C antibody for MLL1 full-length protein levels, and CKIIα or CKIIα′ for knockdown efficiency. (G) 293T cells were treated with DMSO or 10 μM CX-4945 for 30 hours. Cells were harvested and lysed for Western blot against MLL1, MLL2 or TFIIA using β-tubulin as the loading control. (H) and (I) 293T taspase1 KO cells were pre-treated with CX-4945 (3 μM) or TTP22 (10 μM) for 30 hours. […]

JUP and SLC43A2 mRNA = assay: mRNA levels of JUP and SLC43A2 genes in SEM cells
Procedure: RNA-seq Analysis. Gene count tables were constructed using HTseq (Anders et al. 2015) with Ensembl gene annotations and used as input for edgeR 3.0.8 (Robinson et al. 2010). Genes with Benjamini-Hochburg adjusted p-values less than 0.01 were considered to be differentially expressed. GO enrichment analysis was evaluated by the MetaScape online software suite (Tripathi et al. 2015).

[2] = system: MLL-AFF1, AFF4 and ELL2 occupancy; assay: ChIP-seq of MLL-AFF1, AFF4 and ELL2 occupancy in SEM cells
Procedure: as §1
(§2) ChIP-seq Analysis. 5×10^7 cells were used for each ChIP assay, as performed as previously described (Chen et al. 2015). Peaks were called with MACS v1.4.2 (Zhang et al. 2008) using default parameters and were annotated by the HOMER software (Heinz et al. 2010). Metaplots were generated using ngsplot (Shen et al. 2014). […] Differential occupancy of MLL1 was evaluated by edgeR, and peaks with Benjamini-Hochburg adjusted p-values less than 0.05 were considered to be differentially occupied. […]

MLL1 chromatin occupancy = assay: ChIP-seq of MLL1 occupancy in 293T cells; conditions: relative to DMSO control
Procedure: as §1, §2

O=C(O)c1ccc2c(c1)nc(Nc1cccc(Cl)c1)c1ccncc12 [CX-4945, 5-(3-chlorophenylamino)benzo[c][2,6]naphthyridine-8-carboxylic acid]
sensitivity of leukemic cell lines (cell number normalized to DMSO) [1]: MLL leukemia cells were generally more sensitive than non-MLL leukemic cells | MLL1-FL protein levels (MLL1, MLL-AF4): MLL1-FL protein levels also increased | MLL-AF4 protein levels (MLL1, MLL-AF4): without altering MLL-AF4 protein levels | cleavage of MLL2 or TFIIA (MLL2, TFIIA): without affecting the cleavage of MLL2 or TFIIA | mRNA levels of JUP and SLC43A2 genes (JUP and SLC43A2 mRNA): decrease of mRNA levels | genome-wide binding of MLL-AFF1, AFF4 and ELL2 [2]: decrease | MLL1 occupancy (genome-wide) (MLL1 chromatin occupancy): global increase of MLL1 occupancy

Source: patent US11071727B2, “Therapeutic targeting of proteolytic cleavage of the mixed lineage leukemia gene product (MLL1) by taspase1 using kinase inhibitors” (Northwestern University, priority 2018, dated 2021)
